Measured values taken from patent US6759410B1, “3,4-dihydro-(1H)-quinazolin-2-ones and their use as CSBP/p38 kinase inhibitors” (SmithLine Beecham Corporation, priority 1999, dated 2004).

SMILES: Cc1ccccc1-c1cccc2c1CNC(=O)N2c1ccccc1 [Example 14, 1-Phenyl-5-(2-methylphenyl)-3,4-dihydro-(1H)-quinazolin-2-one]
- melting point: 236 to 238 °C
